# Source: patent publication US10085965B2, “Cannabinoid alcoholic drink” (priority 2016, dated 2018)
# What was measured:
# [1] = Dissolution of CBD in ethanol and consumable alcohol (precipitation / clarity); format: physicochemical
# Method: The Combining Cannabinoid Solution with Consumable Alcohol(s) step 156 involves adding the Solution from 154 to a plurality of consumable alcohols measured in 155 in order to create a CAD. In one example, 50 mg of isolated cannabinoid is measured 151. Approximately 5 mL of ethanol is measured 152. The cannabinoid is combined with the ethanol 153. A cannabinoid solution is created by ensuring the cannabinoid is fully dissolved in the ethanol 154. The resulting solution is then combined with one or more consumable alcohols 156. In this example, approximately 745 mL of vodka, to create a standard 750 mL bottle of cannabinoid infused vodka. In other embodiments, other volumes of CADs can be produced. In yet another embodiment, the volume fraction of cannabinoid/ethanol solution in total volume of CADs is equal to or less than 1%.
# One particular cannabinoid that can be used is CBD. […] Thus, the CBD and ethanol combine to remain as a fully dissolved, clear solution. […]
# The Combining CBD/Ethanol Solution with consumable Alcohol(s) step 256 involves adding the Solution from 254 to the plurality of consumable alcohols measured in 255 in order to create a CAD. In one example, 50 mg of isolated CBD is measured 251. Approximately 5 mL of ethanol is measured 252. […]
# [2] = Effects reported by people when the CBD alcoholic drink is consumed; format: in vivo; details: CBD consumed together with alcohol in the drink; reports of consumers
# Source text: When consumed, the positive effects of the CBD help to offset the deleterious effects of the alcohol.
# [3] = test system: binge alcohol-induced neurodegeneration; details: transdermal delivery, rodent model; Liputa et al. 2013; cited from earlier work
smiles,measurement,setting,value
"C=C(C)[C@@H]1CCC(C)=C[C@H]1c1c(O)cc(CCCCC)cc1O [CBD, cannabidiol]",dissolution of CBD in ethanol,[1]; 7.8 mg CBD in 1 mL ethanol,no problem with dissolution
same,precipitation of CBD from the solution,"[1]; amounts/ratios described: 50 mg in approx. 5 mL ethanol, combined with approx. 745 mL vodka, room temperature",will not precipitate out
same,effects reported when consumed,[2],"euphoria, a sense of being upbeat and feeling little to no effect of the alcohol"
same,effect on binge alcohol-induced neurodegeneration,[3],attenuate binge alcohol-induced neurodegeneration
